{"source": "patent US9486449B2", "about": "“Cancer therapy” (priority 2007, dated 2016)", "key": {"[1]": {"target": "T1, binding of γ-tubulin to kinesin-14/HSET (Homo sapiens, UniProt Q9BW19)", "T1 sequence (Q9BW19 1-673)": "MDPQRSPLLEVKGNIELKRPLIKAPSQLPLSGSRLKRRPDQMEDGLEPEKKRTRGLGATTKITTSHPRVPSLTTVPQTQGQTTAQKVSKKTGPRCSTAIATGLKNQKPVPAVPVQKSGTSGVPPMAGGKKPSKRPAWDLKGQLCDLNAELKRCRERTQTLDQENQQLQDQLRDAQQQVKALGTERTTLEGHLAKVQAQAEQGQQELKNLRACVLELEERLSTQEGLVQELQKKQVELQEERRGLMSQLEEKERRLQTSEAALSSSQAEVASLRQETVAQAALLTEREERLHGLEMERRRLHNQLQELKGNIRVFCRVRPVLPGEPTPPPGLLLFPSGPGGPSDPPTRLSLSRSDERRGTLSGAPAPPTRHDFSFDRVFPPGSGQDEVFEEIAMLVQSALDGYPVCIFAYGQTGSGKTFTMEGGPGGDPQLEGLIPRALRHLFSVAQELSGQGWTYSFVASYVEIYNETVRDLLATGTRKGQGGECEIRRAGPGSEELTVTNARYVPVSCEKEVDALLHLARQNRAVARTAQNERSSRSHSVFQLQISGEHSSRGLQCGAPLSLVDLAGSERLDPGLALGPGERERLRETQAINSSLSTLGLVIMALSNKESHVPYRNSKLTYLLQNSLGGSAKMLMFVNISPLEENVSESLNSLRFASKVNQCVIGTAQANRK", "experiment": "Co-IP of kinesin-14/HSET with γ-tubulin in MDA-MB-231 cells", "assay_type": "cell-based", "conditions": "48 hours, PJ-34 20 μM, Tiq-A 100 μM, Phen(6) 50 μM", "source_text": "Thus, PJ-34, Tiq-A and Phen interfered with the co-immunoprecipitation of HSET with γ-tubulin."}, "[2]": {"system": "α-tubulin with γ-tubulin", "experiment": "Co-immunoprecipitation of α-tubulin with γ-tubulin in cancer cells", "assay_type": "cell-based"}, "[3]": {"system": "MDA-MB-231 breast cancer cells", "experiment": "Survival of MDA-MB-231 cells after single application", "description": "Each value is an average value of three measurements obtained in three different experiments."}, "[4]": {"system": "cardiomyocytes", "experiment": "Effect on quiescent cells: cardiomyocytes", "assay_type": "cell-based", "conditions": "10 to 30 μM PJ-34, 100 μM Tiq-A, 50 μM Phen"}, "[5]": {"system": "brain cortical neurons", "experiment": "Effect on quiescent cells: brain cortical neurons", "assay_type": "cell-based", "conditions": "10 to 30 μM PJ-34, 100 μM Tiq-A, 50 μM Phen"}, "[6]": {"system": "MCF-7 breast cancer cells", "experiment": "Survival of MCF-7 cells after single application (cell count, microscopy)", "assay_type": "cell-based, human", "conditions": "for MCF-7 survival: 48 to 72 hours, 10 μM PJ-34, Tiq-A 100 μM, Phen 50 μM; for killing of MCF-7 cells: Example 7, single application 24 h after seeding, Tiq-A 50/100 μM 72 h, Phen 25 μM 48 h / 50 μM 72 h", "experimental": "Cells were cultured in 6-wells multi-dish plates (Nunc Denmark). MCF-7 and MDA231 cells were cultured in 6-wells multi-dish plates (Nunc Denmark). MCF-7 and MDA231 cells were maintained in a medium containing DMEM (cat #01055-1A), 10% Horse serum (cat #04-124-1A), 1% L-Glutamine (cat #03-020-1B), and 1% Pen-Strep Ampho (cat #03-033-1B) (Gibco, Invitrogene, purchased from Rhenium, Jerusalem 91035 Israel.\nMCF-7 cells were seeded (about 50,000/well) in 6-well plates. […]. […] […].\nThe effect of PARP inhibitors on MCF-7 and MDA-MB-231 human breast cancer cells was examined (cells were seeded in about 500,000 cells/[…] well in six-well plates). […]. The damage was irreversible. […]. […] […]."}, "[7]": {"system": "U-87 Glioblastoma cells", "experiment": "Viability of U-87 glioblastoma cells (FACS)", "assay_type": "cell-based, human", "conditions": "0.5-30 μM, single application; 72 and 96 h (PJ-34), 96 h (Phen, Tiq-A)", "experimental": "The malignant U-87 Glioblastoma cells were incubated with these molecules applied once 24 hours after seeding. Cell viability was measured by FACS. The results of 3 different experiments carried in duplicates are presented."}, "[8]": {"target": "PARP-1 (Homo sapiens, UniProt P09874)", "sequence (P09874 whole entry, species assumed)": "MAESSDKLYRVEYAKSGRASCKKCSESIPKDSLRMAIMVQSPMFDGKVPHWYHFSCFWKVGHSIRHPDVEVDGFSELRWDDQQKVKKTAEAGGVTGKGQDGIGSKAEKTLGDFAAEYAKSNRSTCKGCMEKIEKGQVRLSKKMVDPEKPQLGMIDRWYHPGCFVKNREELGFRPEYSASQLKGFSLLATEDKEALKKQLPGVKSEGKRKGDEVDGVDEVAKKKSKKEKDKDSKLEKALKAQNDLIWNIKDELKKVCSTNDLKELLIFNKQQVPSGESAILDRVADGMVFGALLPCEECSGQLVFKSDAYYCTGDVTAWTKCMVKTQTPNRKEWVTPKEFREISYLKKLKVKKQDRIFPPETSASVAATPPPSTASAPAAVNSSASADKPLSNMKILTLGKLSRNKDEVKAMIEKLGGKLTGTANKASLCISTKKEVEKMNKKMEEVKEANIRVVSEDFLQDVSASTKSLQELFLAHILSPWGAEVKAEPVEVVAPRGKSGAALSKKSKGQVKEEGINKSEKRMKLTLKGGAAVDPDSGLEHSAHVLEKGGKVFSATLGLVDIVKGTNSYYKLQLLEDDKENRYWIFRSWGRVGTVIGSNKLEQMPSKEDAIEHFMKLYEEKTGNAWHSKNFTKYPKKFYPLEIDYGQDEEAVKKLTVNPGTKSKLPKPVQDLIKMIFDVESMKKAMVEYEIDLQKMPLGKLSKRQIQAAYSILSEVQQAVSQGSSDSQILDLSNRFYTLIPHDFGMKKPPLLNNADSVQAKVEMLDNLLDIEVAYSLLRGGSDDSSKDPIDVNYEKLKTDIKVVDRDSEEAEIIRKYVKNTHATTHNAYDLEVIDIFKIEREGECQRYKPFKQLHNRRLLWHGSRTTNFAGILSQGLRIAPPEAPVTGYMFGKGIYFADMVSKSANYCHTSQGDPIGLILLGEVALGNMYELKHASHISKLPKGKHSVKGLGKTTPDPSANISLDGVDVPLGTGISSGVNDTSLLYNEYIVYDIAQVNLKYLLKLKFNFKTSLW", "conditions": "cited from earlier work; for EC50: read-out: EC50 for PARP1 inhibition"}, "[9]": {"system": "CAPANI cells (which are deficient in brca2)", "conditions": "cited from earlier work"}, "[10]": {"system": "HCC1937 (triple negative, BRCA deficient) human breast cancer cells", "experiment": "Combination of MEK and PARP inhibitors on HCC1937 cells", "assay_type": "cell-based", "conditions": "48 hours; PJ-34 5 or 10 μM or Tiq-A 50 μM with 5 μM U0126"}, "[11]": {"target": "T2, HSET (Homo sapiens, UniProt Q9BW19)", "T2 sequence (Q9BW19 1-673)": "T1 sequence (Q9BW19 1-673)", "experiment": "Post translational modification of HSET in MDA-MB-231 cells (pI shift, 2-D gel electrophoresis)", "assay_type": "cell-based", "conditions": "ABT888 at 5-20 μM", "experimental": "Post translational modifications of HSET in MDA-MB-231 breast cancer cells (FIG. 24B-I) were measured by the shifts in its isoelectric point (pI). […] Also, HSET is not modified in normal epithelial cells MCF10A. The vertical lines mark the point of loading of the proteins including HSET in the cell extracts. The arrows mark the shifted pI of HSET. In untreated MDA-MB-231 cells, the largest shift in pI of HSET was to pH 5.6 in the untreated MDA-MB-231 cells."}, "[12]": {"system": "MDA-MB-231 xenotransplants", "experiment": "MDA-MB-231 xenotransplants in nude mice, PJ-34 intra-peritoneal", "assay_type": "in vivo, mouse", "conditions": "50 mg/kg PJ-34 i.p. daily for 14 days, started at palpable tumors; individual treated mice (untreated 750 and 850); HCl", "experimental": "In vivo experiments were carried out in nude female mice (nu/nu) injected subcutaneously with MDA-MB-231 cells (FIG. 32). […] About 10^6 cells were injected in 100 μl of MEM (Gibco, Rhenium, Jerusalem Israel) and 100 μl of Matrigel Basement Membrane Matrix (Becton Dickinson, Bedford, Mass., USA; In Israel, Bactolab Diagnostics). Two weeks after injection with MDA-MB-231 cells, palpable (50-80 mm^3) tumors developed in all the female nude mice. One pair of mice remained un-treated. […] Tumors' size was measured every day in all the mice (both treated and untreated). The treated mice were photographed on the first day and on the last day of treatment. Tumor sizes were 750 mm^3 and 850 mm^3 in the untreated mice, versus 130 mm^3 and 150 mm^3 in the treated mice."}, "[13]": {"system": "extra-centrosomes de-clustering in human cancer cells", "experiment": "Extra-centrosomes de-clustering", "assay_type": "cell-based"}, "[14]": {"system": "MDA-MB-231 xenotransplants", "experiment": "MDA-MB-231 xenotransplants in nude mice, PJ-34 by subcutaneous osmotic pump", "assay_type": "in vivo, mouse", "conditions": "PJ-34 treated, tumor-free mice", "experimental": "Xenotransplants were developed in female CD-1 nu/nu 5 to 6 weeks old. MCF-7 and MDA 231 cells were injected subcutaneously, about 10^7 MCF-7 or MDA231 cells in 150 μl of PBS and 150 μl of Martigel Basement Membrane Matrix Becton Dickinson, Bedford, Mass., USA; In Israel Bactolab Diagnostics). In mice treated with PJ-34, injection was adjacent to subcutaneous osmotic pumps dripping PJ-34 by a slow release. The mice were maintained under specific pathogen-free conditions with access to mouse chow and water ad libitum. […]. Subcutaneous implantation of these pumps was performed before injection by a veterinarian (Dr. Kastel David). All the experiments with nude mice conform to the Guide for the Care and Use of Laboratory Animals published by the NIH (publication No. 85-23, revised 1996). Approval was granted by the Israeli Ministry of Health ethics review board in the Tel-AvivUniversity (M08033).\nIn vivo experiments were carried out in nude female mice (nu/nu) injected subcutaneously with MCF-7 or MDA-MB-231 cells (FIG. 15). […]. In the control nude mice, pumps contained only PBS, or pumps were not implanted. Each mouse was injected subcutaneously with approximately 10^7 MCF-7 or MDA-MB-231 cells dispersed in Matrigel. Tumors developed within 6 to 7 weeks in the control mice injected with MCF-7 cells and within 10 days in the control mice injected with MDA231 cells. […]"}, "[15]": {"experiment": "Tolerability of slow-release PJ-34 in nude mice", "assay_type": "in vivo", "experimental": ". In vivo experiments were carried out in nude female mice (nu/nu) injected subcutaneously with MCF-7 or MDA-MB-231 cells (FIG. 15). […]. In the control nude mice, pumps contained only PBS, or pumps were not implanted. Each mouse was injected subcutaneously with approximately 10^7 MCF-7 or MDA-MB-231 cells dispersed in Matrigel. Tumors developed within 6 to 7 weeks in the control mice injected with MCF-7 cells and within 10 days in the control mice injected with MDA231 cells. One mouse died 3 weeks after being injected with MDA-MB-231 cells. […]"}, "[16]": {"system": "MCF-7 brca1+/+ cells", "conditions": "10 μM, 10 consecutive days; cited from earlier work"}}, "note": "Several values for one entry are separate records, joined by “and”; a condition that tells them apart may be missing. Equal values may be shown once. Where a name gives a salt, the structure may show the parent alone."}
{"molecule": "C[C@]1(c2nc3c(C(N)=O)cccc3[nH]2)CCCN1", "note": "[ABT888, reference compound]", "values": [{"measurement": "binding of γ-tubulin to kinesin-14/HSET", "setting": "[1]", "value": "did not affect the binding"}, {"measurement": "co-immunoprecipitation of α-tubulin with γ-tubulin", "setting": "[2]", "value": "not"}]}
{"molecule": "O=c1[nH]c2ccccc2c2ccccc12", "note": "[Phen, 6-(5H)-phenanthridinone]", "values": [{"measurement": "binding of γ-tubulin to kinesin-14/HSET", "setting": "[1]", "value": "interfered with the binding"}, {"measurement": "killing of MDA-MB-231 breast cancer cells", "setting": "[3]", "value": "efficient killing"}, {"measurement": "impairment of quiescent cells", "setting": "[4]", "value": "not impaired at all"}, {"measurement": "impairment of quiescent cells", "setting": "[5]", "value": "not impaired at all"}, {"measurement": "MCF-7 survival", "setting": "[6]", "value": "did not survive"}, {"measurement": "killing of MCF-7 cells", "setting": "[6]", "value": "efficient in killing MCF-7 cells"}, {"measurement": "cytotoxicity in glioblastoma cancer cells", "setting": "[7]", "value": "cytotoxic in glioblastoma cancer cells at high concentrations"}, {"measurement": "EC50", "setting": "[8]", "value": 120, "unit": "nM"}]}
{"molecule": "Cc1nc2c(O)cccc2c(=O)[nH]1", "note": "[NU1025]", "values": [{"measurement": "inhibition of CAPANI cells", "setting": "[9]", "value": "not inhibited"}]}
{"molecule": "O=C1CCC(=O)N1c1cc(Cc2n[nH]c(=O)c3ccccc23)ccc1F", "note": "[KU0058684]", "values": [{"measurement": "inhibition of CAPANI cells", "setting": "[9]", "value": "inhibited"}]}
{"molecule": "O=c1[nH]c2sccc2c2ccccc12", "note": "[Tiq-A, 4H-thieno[2,3-c]isoquinolin-5-one]", "values": [{"measurement": "effect of combination with MEK inhibitor U0126 versus each inhibitor alone", "setting": "[10]", "value": "synergistic effect"}, {"measurement": "binding of γ-tubulin to kinesin-14/HSET", "setting": "[1]", "value": "interfered with the binding"}, {"measurement": "killing of MDA-MB-231 breast cancer cells", "setting": "[3]", "value": "efficient killing"}, {"measurement": "post translational modification of HSET (pI shift)", "setting": "[11]", "value": "prevent the post translational modification"}, {"measurement": "impairment of quiescent cells", "setting": "[4]", "value": "not impaired at all"}, {"measurement": "impairment of quiescent cells", "setting": "[5]", "value": "not impaired at all"}, {"measurement": "MCF-7 survival", "setting": "[6]", "value": "did not survive"}, {"measurement": "killing of MCF-7 cells", "setting": "[6]", "value": "efficient in killing MCF-7 cells"}, {"measurement": "cytotoxicity in glioblastoma cancer cells", "setting": "[7]", "value": "cytotoxic in glioblastoma cancer cells at high concentrations"}, {"measurement": "EC50", "setting": "[8]", "value": 450, "unit": "nM"}]}
{"molecule": "CN(C)CC(=O)Nc1ccc2[nH]c(=O)c3ccccc3c2c1", "note": "[PJ-34, N-(6-oxo-5,6-dihydro-phenanthridin-2-yl)-N,N-dimethylacetamide, HCl]", "values": [{"measurement": "Tumor sizes", "setting": "[12]", "value": "130 mm^3 and 150 mm^3"}, {"measurement": "concentration at which PJ-34 acts as centrosomes de-clustering agent", "setting": "[13]", "value": "above 20 microM"}, {"measurement": "survival of the other 3 treated mice", "setting": "[14]", "value": "more than 4 months"}, {"measurement": "cell death", "setting": "[6]; 48 hours after single application of 10-20 μM PJ-34", "value": "more than 99.5%"}, {"measurement": "MCF-7 cells eradicated", "setting": "[6]; 48 hours of incubation with 10 μM PJ-34", "value": "More than 99%"}, {"measurement": "cytotoxicity in glioblastoma cancer cells", "setting": "[7]", "value": "cytotoxic in glioblastoma cancer cells at high concentrations"}, {"measurement": "viability, growth or behavior of the mice", "setting": "[15]; 3 months after 14-day osmotic pump treatment (Example 6)", "value": "did not affect viability, growth or behavior"}, {"measurement": "vitality, growth, development, or any other behavior of treated mice", "setting": "[15]; 14-day slow release of PJ-34, follow-up periods (Example 11)", "value": "did not affect the vitality, growth, development, or any other behavior"}]}
{"molecule": "CN(C)Cc1ccc(-c2nc3cccc4c3n2CCNC4=O)cc1", "note": "[AG14361, reference compound]", "values": [{"measurement": "cells eradicated", "setting": "[16]", "value": 50, "unit": "%"}, {"measurement": "Ki", "setting": "[8]; PARP-1", "value": "< 5", "unit": "nM"}]}
